# Numbered stars: 1 amine (or outer) side, 2 acyl side, 3 side chain; on linkers, the order of the positions; unused ones are H or OH. Bridge positions count the residues as written; N and C are the ends. Square brackets hold non-standard residues; d marks the D form. Peptide text beside a SMILES is read from it. * marks the point of attachment. X1 = NC1=N[C@@H]([C@H](N[*:1])C(=O)[*:2])C[C@H](O)N1; ΔAla(Z-3-ureido) = NC(=O)N/C=C(\N)C(=O)O; β3hOrn = NCCC[C@H](N)CC(=O)*; Dap = NC[C@H](N)C(=O)O
# System: SARS-CoV-2
# Experiment: microbe, parasite or virus in culture
# Conditions: Severe acute respiratory syndrome coronavirus 2, Vero C1008, 48 h
SMILES,IC50,IC50 (read-out: pIC50 (converted))
N#C[C@@H]1CCCN1C(=O)CNC12CC3CC(CC(O)(C3)C1)C2 [VILDAGLIPTIN],> 20 µM,> 20 µM
CCOc1ccccc1OCC1CNCCO1 (stereo not given) [VILOXAZINE],> 20 µM,> 20 µM
CC[C@]12CCCN3CCc4c(n(c5ccccc45)C(=O)C1)[C@@H]32 [VINBURNINE],> 20 µM,> 20 µM
CC[C@]12CCCN3CCc4c(n(c5ccccc45)[C@@](O)(C(=O)OC)C1)[C@@H]32 [VINCAMINE],> 20 µM,> 20 µM
CC[C@]1(O)C[C@H]2CN(CCc3c([nH]c4ccccc34)[C@@](C(=O)OC)(c3cc4c(cc3OC)N(C=O)[C@H]3[C@@](O)(C(=O)OC)[C@H](OC(C)=O)[C@]5(CC)C=CCN6CC[C@]43[C@@H]65)C2)C1 [VINCRISTINE],> 20 µM,> 20 µM
CC[C@]1(O)C[C@@H]2CN(CCc3c([nH]c4ccccc34)[C@@](C(=O)OC)(c3cc4c(cc3OC)N(C)[C@H]3[C@@](O)(C(N)=O)[C@H](O)[C@]5(CC)C=CCN6CC[C@]43[C@@H]65)C2)C1 [VINDESINE],> 20 µM,> 20 µM
CCOC(=O)C1=C[C@]2(CC)CCCN3CCc4c(n1c1ccccc41)[C@@H]32 [VINPOCETINE],> 20 µM,> 20 µM
NCCC[C@H](N)CC(=O)N[C@H]1CNC(=O)[C@H]([C@H]2C[C@H](O)NC(N)=N2)NC(=O)/C(=C/NC(N)=O)NC(=O)[C@H](CO)NC(=O)[C@H](CO)NC1=O [VIOMYCIN] (β3hOrn-[Dap]SS[ΔAla(Z-3-ureido)][X1]; lactam 1-C),> 20 µM,> 20 µM
CC(C)S(=O)(=O)n1c(N)nc2ccc(C(=NO)c3ccccc3)cc21 [VIROXIME],> 20 µM,> 20 µM
CS(=O)(=O)c1ccc(C(=O)Nc2ccc(Cl)c(-c3ccccn3)c2)c(Cl)c1 [VISMODEGIB],> 20 µM,> 20 µM
COc1c2ccoc2cc2oc(C)cc(=O)c12 [VISNAGIN],> 20 µM,> 20 µM
CNC(=O)c1cccc(-c2ccc3c(N4CCOC[C@@H]4C)nc(N4CCOC[C@@H]4C)nc3n2)c1 [VISTUSERTIB],> 20 µM,> 20 µM
N#CC(O[C@@H]1O[C@H](CO[C@@H]2O[C@H](CO)[C@@H](O)[C@H](O)[C@H]2O)[C@@H](O)[C@H](O)[C@H]1O)c1ccccc1 (stereo not given in full) [VITAMIN B17],> 20 µM,> 20 µM
COc1cccc([C@H](O)C2CCN(CCc3ccc(F)cc3)CC2)c1OC [VOLINANSERIN],> 20 µM,> 20 µM
C[C@@H](c1ncncc1F)[C@](O)(Cn1cncn1)c1ccc(F)cc1F [VORICONAZOLE],> 20 µM,> 20 µM
Cc1nnnn1N=Cc1ccc(O)c(C(c2ccc(O)cc2)c2cc(C=Nn3nnnc3C)ccc2O)c1 (stereo not given) [VP-14637],> 20 µM,> 20 µM
COC(=O)/C(=C1/OC(=O)C(c2ccccc2)=C1O)c1ccccc1 [VULPINIC ACID],> 20 µM,> 20 µM
CC(C)OC(=O)[C@H](C)NP(=S)(OC[C@H]1O[C@@H](n2ccc(=O)[nH]c2=O)[C@](C)(O)[C@@H]1O)Oc1ccccc1 (stereo not given in full) [VX-135],> 20 µM,> 20 µM
NC(=O)c1ccc(N(C(N)=O)c2c(F)cccc2F)nc1-c1ccc(F)cc1F [VX-702],> 20 µM,> 20 µM
CC(=O)CC(c1ccccc1)c1c(O)c2ccccc2oc1=O (stereo not given) [WARFARIN],> 20 µM,> 20 µM
Cc1cc(CCCCCOc2c(Cl)cc(C3=NCCO3)cc2Cl)on1 [WIN-54954],> 20 µM,> 20 µM
FC(F)(F)c1cccc(C2=CCN(CCc3ccc4ccccc4c3)CC2)c1 [XALIPRODEN],> 20 µM,> 20 µM
O=C(NCCNCC(O)COc1ccc(O)cc1)N1CCOCC1 (stereo not given) [XAMOTEROL],> 20 µM,> 20 µM
CCCCCCOc1nsnc1C1=CCCN(C)C1 [XANOMELINE],> 20 µM,> 20 µM
CN(CCO)CC(O)Cn1cnc2c1c(=O)n(C)c(=O)n2C (stereo not given) [XANTHINOL],> 20 µM,> 20 µM
